Values after ≈ are worked out from the molar mass of the structure shown.
What was measured:
Assay type in all cases: functional
[1] = test system: Mycobacterium tuberculosis; test: Antimycobacterial activity against isoniazid and rifampicin-resistant Mycobacterium tuberculosis MTB985 clinical isolate by MTT assay
[2] = test system: Mycobacterium tuberculosis; test: Antimycobacterial activity against isoniazid and rifampicin-resistant Mycobacterium tuberculosis MTB411 clinical isolate by MTT assay
[3] = test system: Mycobacterium tuberculosis; test: Antimycobacterial activity against isoniazid and rifampicin-resistant Mycobacterium tuberculosis UT544 clinical isolate by MTT assay
[4] = test system: Mycobacterium tuberculosis; test: Antimycobacterial activity against isoniazid and rifampicin-resistant Mycobacterium tuberculosis MTB4000 clinical isolate by MTT assay
[5] = test system: Mycobacterium tuberculosis; test: Antimycobacterial activity against isoniazid and rifampicin-resistant Mycobacterium tuberculosis MTB2556 clinical isolate by MTT assay
[6] = test system: Mycobacterium tuberculosis; test: Antimycobacterial activity against streptomycin-resistant Mycobacterium tuberculosis H37Rv ATCC 35820 by MTT assay
[7] = test system: Mycobacterium tuberculosis; test: Antimycobacterial activity against isoniazid-resistant Mycobacterium tuberculosis H37Rv ATCC 35822 by MTT assay
[8] = test system: Mycobacterium tuberculosis; test: Antimycobacterial activity against rifampicin-resistant Mycobacterium tuberculosis H37Rv ATCC 35838 by MTT assay
[9] = test system: Mycobacterium tuberculosis; test: Antimycobacterial activity against ethambutol-resistant Mycobacterium tuberculosis H37Rv ATCC 35837 by MTT assay

SMILES	MIC [1] [µg/mL]	MIC [2] [µg/mL]	MIC [3] [µg/mL]	MIC [4] [µg/mL]	MIC [5] [µg/mL]	MIC [6] [µg/mL]	MIC [7] [µg/mL]	MIC [8] [µg/mL]	MIC [9] [µg/mL]
O=C1C(=O)c2ccccc2C2=C1C(c1ccccc1)c1c(-c3ccc([N+](=O)[O-])cc3)n[nH]c1N2 (stereo not given)	8 (≈ 17.8 µM)	16 (≈ 35.7 µM)	8 (≈ 17.8 µM)	16 (≈ 35.7 µM)	8 (≈ 17.8 µM)	16 (≈ 35.7 µM)	16 (≈ 35.7 µM)	16 (≈ 35.7 µM)	> 32
COc1ccc(C2C3=C(Nc4[nH]nc(-c5ccccc5)c42)c2ccccc2C(=O)C3=O)cc1 (stereo not given)	> 32	> 32	> 32	> 32	> 32	> 32	> 32	> 32	> 32
Cc1nn(-c2ccccc2)c2nc3c(c(-c4ccc(F)cc4)c12)C(=O)C(=O)c1ccccc1-3	≤ 2	4 (≈ 9.23 µM)	≤ 2	≤ 2	≤ 2	≤ 2	≤ 2	4 (≈ 9.23 µM)	4 (≈ 9.23 µM)
O=C1C(=O)c2ccccc2C2=C1C(c1ccccc1)c1c(-c3ccc(Cl)cc3)n[nH]c1N2 (stereo not given)	> 32	> 32	> 32	> 32	> 32	> 32	> 32	> 32	> 32
CO[C@H]1/C=C/O[C@@]2(C)Oc3c(C)c(O)c4c(O)c(c(/C=N/N5CCN(C)CC5)c(O)c4c3C2=O)NC(=O)/C(C)=C\C=C\[C@H](C)[C@H](O)[C@@H](C)[C@@H](O)[C@@H](C)[C@H](OC(C)=O)[C@@H]1C [RIFAMPIN]	> 0.5	> 0.5	> 0.5	> 0.5	> 0.5	0.125 (≈ 0.152 µM)	0.125 (≈ 0.152 µM)	> 0.5	0.125 (≈ 0.152 µM)
Cc1ccc(-c2n[nH]c3nc4c(c(-c5ccc([N+](=O)[O-])cc5)c23)C(=O)C(=O)c2ccccc2-4)cc1	> 32	> 32	> 32	> 32	> 32	> 32	> 32	> 32	> 32
Cc1ccc(C2C3=C(Nc4[nH]nc(-c5ccccc5)c42)c2ccccc2C(=O)C3=O)cc1 (stereo not given)	> 32	> 32	> 32	> 32	> 32	> 32	> 32	> 32	> 32
NNC(=O)c1ccncc1 [ISONIAZID]	> 0.5	> 0.5	> 0.5	> 0.5	> 0.5	0.25 (≈ 1.82 µM)	> 0.5	0.25 (≈ 1.82 µM)	0.25 (≈ 1.82 µM)
Cc1ccc(-c2n[nH]c3c2C(c2ccccc2)C2=C(N3)c3ccccc3C(=O)C2=O)cc1 (stereo not given)	16 (≈ 38.3 µM)	16 (≈ 38.3 µM)	16 (≈ 38.3 µM)	16 (≈ 38.3 µM)	16 (≈ 38.3 µM)	16 (≈ 38.3 µM)	16 (≈ 38.3 µM)	4 (≈ 9.58 µM)	16 (≈ 38.3 µM)
Cc1ccc(-c2c3c(nc4c2c(C)nn4-c2ccccc2)-c2ccccc2C(=O)C3=O)cc1	≤ 2	4 (≈ 9.31 µM)	≤ 2	≤ 2	≤ 2	≤ 2	≤ 2	4 (≈ 9.31 µM)	4 (≈ 9.31 µM)
O=C1C(=O)c2ccccc2C2=C1C(c1ccccc1)c1c(-c3ccccc3)n[nH]c1N2 (stereo not given)	> 32	> 32	> 32	> 32	> 32	> 32	> 32	> 32	> 32
COc1ccc(-c2c3c(nc4[nH]nc(-c5ccc(Cl)cc5)c24)-c2ccccc2C(=O)C3=O)cc1	16 (≈ 34.3 µM)	16 (≈ 34.3 µM)	8 (≈ 17.2 µM)	16 (≈ 34.3 µM)	8 (≈ 17.2 µM)	16 (≈ 34.3 µM)	> 32	16 (≈ 34.3 µM)	> 32
Cc1nn(-c2ccccc2)c2nc3c(c(-c4ccc(Cl)cc4)c12)C(=O)C(=O)c1ccccc1-3	> 32	> 32	> 32	> 32	> 32	> 32	> 32	> 32	> 32
Cc1nn(-c2ccccc2)c2nc3c(c(-c4ccccc4)c12)C(=O)C(=O)c1ccccc1-3	≤ 2	4 (≈ 9.63 µM)	≤ 2	≤ 2	≤ 2	≤ 2	≤ 2	≤ 2	≤ 2
COc1cc(-c2c3c(nc4c2c(C)nn4-c2ccccc2)-c2ccccc2C(=O)C3=O)cc(OC)c1OC	> 32	> 32	> 32	> 32	> 32	> 32	> 32	> 32	> 32

From ChEMBL document CHEMBL3112512, “Microwave induced three-component synthesis and antimycobacterial activity of benzopyrazolo[3,4-b]quinolindiones” (2014)
